Inhibition data for 18 compounds are collected here from patent US9145373B2, “Certain kynurenine-3-monooxygenase inhibitors, pharmaceutical compositions, and methods of use thereof” (CHDI FOUNDATION, INC., priority 2008, dated 2015).

The target in the assay is T1, KMO mouse enzyme (Mus musculus, UniProt Q91WN4).
T1 construct: KMO enzyme prepared at Evotec from mouse liver (4-6 weeks old) via mitochondria isolation; from tissue; host or cells: mouse liver (4-6 weeks old), mitochondria isolation, prepared at Evotec
T1 sequence (Q91WN4 whole entry): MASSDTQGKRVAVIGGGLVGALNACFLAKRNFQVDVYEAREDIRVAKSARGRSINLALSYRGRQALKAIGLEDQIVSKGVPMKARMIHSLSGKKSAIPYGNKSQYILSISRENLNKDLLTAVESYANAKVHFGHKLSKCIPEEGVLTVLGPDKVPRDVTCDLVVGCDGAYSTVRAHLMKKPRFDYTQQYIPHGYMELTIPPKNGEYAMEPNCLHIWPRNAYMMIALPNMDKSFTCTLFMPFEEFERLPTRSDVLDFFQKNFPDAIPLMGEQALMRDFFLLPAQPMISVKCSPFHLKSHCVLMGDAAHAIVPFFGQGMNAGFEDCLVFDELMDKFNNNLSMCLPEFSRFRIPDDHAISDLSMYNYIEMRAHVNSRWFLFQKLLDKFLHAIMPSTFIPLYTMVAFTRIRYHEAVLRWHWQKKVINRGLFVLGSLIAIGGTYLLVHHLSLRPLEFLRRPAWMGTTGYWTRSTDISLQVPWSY
Briefly: KMO mouse enzyme assay: L-Kynurenine hydroxylation to 3-Hydroxy-Kynurenine monitored by LC/MS (MRM). It counts as biochemical. Particulars: compound at 10 μM; KMO enzyme from mouse liver mitochondria; read-out: INH.Mouse @ 10 μM. The essentials: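 Enzyme is a mitochondrial preparation from 4-6-week-old mouse liver, with L-kynurenine as substrate in potassium phosphate buffer, pH 7.4. 3-Hydroxy-kynurenine formed is quantified by LC/MS using multiple reaction monitoring. Compound stocks were 10 mM in DMSO.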
For `COC(=O)c1cc(-c2cccc(Cl)c2F)ncn1` [6-(3-Chloro-2-fluoro-phenyl)-pyrimidine-4-carboxylic acid methyl ester], the inhibition at 10 µM was 100%.
Under `O=C(c1cc(-c2ccc(Cl)c(Cl)c2)ccn1)N1CCc2ccccc21` [[4-(3,4-Dichloro-phenyl)-pyridin-2-yl]-(2,3-dihydro-indol-1-yl)-methanone] stands 96.6%.
As to `O=C(Nc1ccccn1)c1cc(-c2ccc(Cl)c(Cl)c2)ncn1` [6-(3,4-Dichloro-phenyl)-pyrimidine-4-carboxylic acid pyridin-2-ylamide], the inhibition at 10 µM amounted to 100%.
Under `O=C(Nc1ccc(F)cc1)c1cc(-c2cccc(Cl)c2)ncn1` [6-(3-Chloro-phenyl)-pyrimidine-4-carboxylic acid (4-fluoro-phenyl)-amide] stands 98.9%; under `O=C(Nc1cccnn1)c1cc(-c2cccc(Cl)c2)ncn1` [6-(3-Chloro-phenyl)-pyrimidine-4-carboxylic acid pyridazin-3-ylamide], 100%.
Under `COC(=O)c1cc(-c2cccc(C)c2)ncn1` [6-m-Tolyl-pyrimidine-4-carboxylic acid methyl ester] stands 96.3%; under `COC(=O)c1cc(-c2cccc(OC)c2)ncn1` [6-(3-Methoxy-phenyl)-pyrimidine-4-carboxylic acid methyl ester], 77.5%; under `Cn1cc(NC(=O)c2cc(-c3ccc(Cl)c(Cl)c3)ncn2)cn1` [6-(3,4-Dichloro-phenyl)-pyrimidine-4-carboxylic acid (1-methyl-1H-pyrazol-4-yl)-amide], 100%.
Under `O=C(NCc1ccncc1)c1cc(-c2ccc(Cl)c(Cl)c2)ncn1` [6-(3,4-Dichloro-phenyl)-pyrimidine-4-carboxylic acid (pyridin-4-ylmethyl)-amide] stands 95.5%; under `Cc1ccc(NC(=O)c2cc(-c3ccc(Cl)c(Cl)c3)ncn2)cn1` [6-(3,4-Dichloro-phenyl)-pyrimidine-4-carboxylic acid (6-methyl-pyridin-3-yl)-amide], 100%.
Take `Cc1ccc(NC(=O)c2cc(-c3cccc(Cl)c3)ncn2)cn1` [6-(3-Chloro-phenyl)-pyrimidine-4-carboxylic acid (6-methyl-pyridin-3-yl)-amide]: the inhibition at 10 µM is 85.3%.
Under `O=C(Nc1cccnc1)c1cc(-c2ccc(C(F)(F)F)c(Cl)c2)ncn1` [6-(3-Chloro-4-trifluoromethyl-phenyl)-pyrimidine-4-carboxylic acid pyridin-3-ylamide] stands 48.3%; under `CN(C(=O)c1cc(-c2cccc(Cl)c2)ncn1)c1ccccc1` [6-(3-Chloro-phenyl)-pyrimidine-4-carboxylic acid methyl-phenyl-amide], 100%; under `O=C(c1cc(-c2ccc(Cl)c(Cl)c2)ncn1)N1CCc2cc(Cl)ccc21` [(5-Chloro-2,3-dihydro-indol-1-yl)-[6-(3,4-dichloro-phenyl)-pyrimidin-4-yl]-methanone], 100%.
Under `NC(=O)c1cc(-c2cccc(Cl)c2)ncn1` [6-(3-Chloro-phenyl)-pyrimidine-4-carboxylic acid amide] stands 77.5%; under `O=C(Nc1nncs1)c1cc(-c2cccc(Cl)c2)ncn1` [6-(3-Chloro-phenyl)-pyrimidine-4-carboxylic acid [1,3,4]thiadiazol-2-ylamide], 97.4%.
Under `O=C(Nc1ccon1)c1cc(-c2cccc(Cl)c2)ncn1` [6-(3-Chloro-phenyl)-pyrimidine-4-carboxylic acid isoxazol-3-ylamide] stands 100%; under `O=C(c1cc(-c2cccc(Cl)c2)ncn1)N1CC[C@H](O)C1` [[6-(3-Chloro-phenyl)-pyrimidin-4-yl]-((S)-3-hydroxy-pyrrolidin-1-yl)-methanone], 84.9%.
